What was measured:
[1] = In vitro permeation across synthetic membranes and dermatomed pig skin from solutions of tolterodine base (Franz diffusion cells, Example 2); format: in vitro ADME
Procedure: In vitro skin permeation results were obtained from studies on pig or human skin using Franz diffusion cells.
Full thickness pig and human skin (used in Example 1) or 765 μm skin (used in all other Examples) was used. The 765 μm skin was isolated by using a dermatome (Zimmer Electric Dermatome 8821, Zimmer Chirurgie).
The skin was mounted in the diffusion cells with an available diffusion area of 1.8 cm^2. The inner side of the skin was exposed to 12.1 ml receptor phase (0.05M phosphate buffer, pH 7.4) at 37±1° C. Samples were withdrawn periodically and measured by HPLC. Fluxes (>g/cm^2/h) were obtained by linear regression of data at steady state.
In vitro permeation studies across synthetic membranes and dermatomed pig skin from solutions of tolterodine base, imitating the reservoir type transdermal device. Enhancer was added to one of the solutions.
Membranes of the following types were used: CoTran 9702 (microporous polyethylene film) with 9% vinyl acetate (VA) and CoTran 9728 with 19% vinyl acetate. The solutions 3 and 4 were both applied on the surface of the two mentioned membranes while solution 5 only was applied on the surface of the CoTran 9702 membrane with 9% vinyl acetate. The membranes were placed on top of dermatomed pigskin. The inner sides of the pigskin were exposed to 12.1 ml receptor solution (0.05M phosphate pH 7.4 equilibrated to 37±1° C.).

[2] = poor metabolizer; cited from earlier work
solubility in water = details: room temperature
[3] = pharmacokinetics of oral tolterodine (background data); details: extensive metabolisers, EMs
[4] = partition coefficient between n-octanol and phosphate buffer; details: n-octanol / phosphate buffer at pH 7.32
guinea pigs = experiment: Delayed contact hypersensitivity, Guinea Pig Maximization Test; format: in vivo; details: 1% intradermal induction, 25% topical induction and challenge, in sesame oil
Source text: The delayed contact hypersensitivity test used was the Guinea Pig Maximization Test described by B. Magnusson and A. M. Kligman.
A 1% (w/w) test article concentration in sesame oil was used for the intradermal induction. A 25% (w/w) test article concentration in sesame oil was used for the topical induction and for the challenge application.

| Substance | flux ([1]; 1 or 3% HPC/ethanol solution, 9% VA CoTran membrane on dermatomed pigskin) | flux ([1]; 1 or 3% HPC/ethanol solution, 19% VA CoTran membrane on dermatomed pigskin) | flux ([1]; enhancer (methyl laurate:ethanol 1:9), 9% VA CoTran membrane on dermatomed pigskin) | systemic clearance (CL) [2] | solubility in water (solubility in water) | half-life [3] | partition coefficient (Log P) [4] | delayed contact hypersensitivity reaction (guinea pigs) |
| --- | --- | --- | --- | --- | --- | --- | --- | --- |
| N,N-dilso-propyl-3′-(2-hydroxy-5-methylphenyl)-3-phenylpropanamine [Tolterodine] | about 4 μg/cm^2/h | about 11 μg/cm^2/h | 9 μg/cm^2/h | about 10 L/h | about 11 mg/ml | about 2 hours | 1.83 | – |
| tolterodine L-tartrate | – | – | – | – | – | – | – | did not provoke a delayed contact hypersensitivity reaction |

From US6517864B1 (Pharmacia AB, priority 1998, dated 2003)
